System: octopamine synthesis mutant (iav) Drosophila melanogaster strain
Type: in vivo
Settings: for toxicity in iav strain compared with wild type: in vivo; for % Mortality at LD50 of wild/type Drosophila melanogaster strain, iav: topical, 24 hour

| Structure (SMILES) | toxicity in iav strain compared with wild type | % Mortality at LD50 of wild/type Drosophila melanogaster strain, iav [%] |
| --- | --- | --- |
| CCC(=O)OCCc1ccccc1 [2-phenylethyl propionate] | remarkably increased | 80.0 |
| OCC=Cc1ccccc1 [cinnamic alcohol, 3-phenyl-2-propen-1-ol] | remarkably increased | 80.0 |
| C=CCc1ccc(O)c(OC)c1 [eugenol, 2-methoxy-4-(2-propenyl)phenol] | remarkably increased | 80.0 |
| CC(C)=CCCC(C)=CCO [geraniol, 3,7-dimethyl-2,6-octadien-1-ol] | does not affect the toxicity | 60.0 |
| COC(=O)c1ccccc1O [methyl salicylate, 2-hydroxybenzoic acid methyl ester] | does not affect the toxicity | 46.6 |
| Cc1ccc(C(C)C)cc1 [p-cymene, methyl(1-methylethyl)benzene] | does not affect the toxicity | 40.0 |
